Laboratory results as given in EP2242752B1, “[…] IMIDAZOLES AS HEPATITIS C VIRUS INHIBITORS” (Bristol-Myers Squibb Company, priority 2008, dated 2009).

System: HCV 1b genotype
Assay: HCV Replicon assay (HCV 16-377-neo replicon cells)
Type: cell-based
Conditions: Hepatitis C virus; HCV 1b genotype replicon cells; read-out: EC50 ranges against HCV 1b
Procedure: An HCV Replion assay was utilized in the present disclosure, and was prepared, conducted and validated as described in commonly owned PCT/US2006/022197 and in O'Boyle et. al. Antimicrob Agents Chemother. 2005 Apr;49(4): 1346-53.
HCV 16-377-neo replicon cells were used to test the currently described compound series as well as cells resistant to compound A due to a Y2065H mutation in NS5A (described in application PCT/US2006/022197). The compounds tested were determined to have more than 10-fold less inhibitory activity on cells resistant to compound A than wild-type cells indicating a related mechanism of action between the two compound series. Thus, the compounds of the present disclosure can be effective to inhibit the function of the HCV NS5A protein and are understood to be as effective in combinations as previously described in application PCT/US2006/022197 and commonly owned WO/O4014852. Further, the compounds of the present disclosure can be effective against the HCV 1b genotype. It should also be understood that the compounds of the present disclosure can inhibit multiple genotypes of HCV. […] In one embodiment compounds of the present disclosure are active against the 1a, 1b, 2a, 2b, 3a, 4a, and 5a genotypes.

SMILES | EC50 [nM]
CCCc1[nH]c([C@@H]2CCCN2C(=O)[C@@H](NC(=O)OC)C(C)C)nc1-c1ccc(-c2ccc(-c3c[nH]c([C@@H]4CCCN4C(=O)[C@@H](NC(=O)OC)C(C)C)n3)cc2)cc1 [Example J14c.2, methyl ((1S)-1-(((2S)-2-(4-(4'-(2-((2S)-1-((2S)-2-((methoxycarbonyl)amino)-3-methylbutanoyl)-2-pyrrolidinyl)-1H-imidazol-4-yl)-4-biphenylyl)-5-propyl-1H-imidazol-2-yl)-1-pyrrolidinyl)carbonyl)-2-methylpropyl)carba mate] | 0.001 to 0.999
COC(=O)N[C@@H](C(=O)N1CCC[C@H]1c1nc(-c2ccc(-c3ccc(-c4nc([C@@H]5CCCN5C(=O)[C@H](NC(=O)OC)c5ccccc5)[nH]c4C)cc3)cc2)c[nH]1)c1ccccc1 [Example E5c, methyl ((1R)-2-((2S)-2-(4-(4'-(2-((2S)-1-((2R)-2-((methoxycarbonyl)amino)-2-phenylacetyl)-2-pyrrolidinyl)-1H-imidazol-4-yl)-4-biphenylyl)-5-methyl-1H-imidazol-2-yl)-1-pyrrolidinyl)-2-oxo-1-phenylethyl)carbam ate] | 0.001 to 0.999
COC(=O)N[C@@H](C(=O)N1CC2(CC2)C[C@H]1c1nc(-c2ccc(-c3ccc(-c4c[nH]c([C@@H]5CC6(CC6)CN5C(=O)[C@H](NC(=O)OC)c5ccccc5)n4)cc3)cc2)c[nH]1)c1ccccc1 [Example M150, dimethyl (4,4'-biphenyldiylbis(1H-imidazole-4,2-diyl(6S)-5-azaspiro[2.4]heptane-6,5-diyl((1R)-2-oxo-1-phenyl-2,1-ethanediyl)))biscarbamate] | 0.001 to 0.999
COC(=O)N[C@@H](C(=O)N1[C@@H]2C[C@@H]2C[C@H]1c1nc(-c2ccc(-c3ccc(-c4c[nH]c([C@@H]5C[C@H]6C[C@H]6N5C(=O)[C@H](NC(=O)OC)C(C)C)n4)cc3)cc2)c[nH]1)C(C)C [Example M136, methyl ((1R)-1-(((1R,3S,5R)-3-(4-(4'-(2-((1R,3S,5R)-2-((2R)-2-((methoxycarbonyl)amino)-3-methylbutanoyl)-2-azabicyclo[3.1.0]hex-3-yl)-1H-imidazol-4-yl)-4-biphenylyl)-1H-imidazol-2-yl)-2-azabicyclo[3.1.0]hex-2-yl)carbonyl)-2-methylpropyl)carbamate] | 1 to 99
CC(=O)N[C@@H](C(=O)N1[C@@H]2CC2C[C@H]1c1nc(-c2ccc(-c3ccc(-c4c[nH]c([C@@H]5C[C@H]6C[C@H]6N5C(=O)[C@H](NC(C)=O)C(C)C)n4)cc3)cc2)c[nH]1)C(C)C (mixture of isomers) [Example M143, N-((1R)-1-(((1R,3S,5R)-3-(4-(4'-(2-((1R,3S,SR)-2-((2R)-2-acetamido-3-methylbutanoyl)-2-azabicyclo[3.1.0]hex-3-yl)-1H-imidazol-4-yl)-4-biphenylyl)-1H-imidazol-2-yl)-2-azabicyclo[3.1.0]hex-2-yl)carbonyl)-2-methylpropyl)acetamide] | 1 to 99
COC(=O)N[C@H](C(=O)N1CCC[C@H]1c1nc(-c2ccc(-c3ccc(-c4[nH]c([C@@H]5CCCN5C(=O)[C@@H](NC(=O)OC)C(C)C)nc4CC(OC)OC)cc3)cc2)c[nH]1)C(C)C [Example J14a.1, methyl ((1S)-1-(((2S)-2-(4-(2,2-dimethoxyethyl)-5-(4'-(2-((2S)-1-((2S)-2-((methoxycarbonyl)amino)-3-methylbutanoyl)-2-pyrrolidinyl)-1H-imidazol-4-yl)-4-biphenylyl)-1H-imidazol-2-yl)-1-pyrrolidinyl)carbonyl)-2-methylpropyl)carba mate] | 0.001 to 0.999
COC(=O)NC(C)(C)C(=O)N1[C@@H](C)CC[C@H]1c1ncc(-c2ccc(-c3ccc(-c4cnc([C@@H]5CC[C@H](C)N5C(=O)C(C)(C)NC(=O)OC)[nH]4)cc3)cc2)[nH]1 [Example M156, methyl (2-((2S,5S)-2-(4-(4'-(2-((2S,5S)-1-(2-((methoxycarbonyl)amino)-2-methylpropanoyl)-5-methyl-2-pyrrolidinyl)-1H-imidazol-4-yl)-4-biphenylyl)-1H-imidazol-2-yl)-5-methyl-1-pyrrolidinyl)-1,1-dimethy 1-2-oxoethyl)carbamate] | 1 to 99
CC[C@H](NC(=O)OC)C(=O)N1CC2(CC2)C[C@H]1c1nc(-c2ccc(-c3ccc(-c4c[nH]c([C@@H]5CC6(CC6)CN5C(=O)[C@H](CC)NC(=O)OC)n4)cc3)cc2)c[nH]1 [Example M148, dimethyl (4,4'-biphenyldiylbis(1H-imidazole-4,2-diyl(6S)-5-azaspiro[2.4]heptane-6,5-diyl((2S)-1-oxo-1,2-butanediyl)))biscarbamate] | 0.001 to 0.999
CC(=O)N[C@H](C(=O)N1[C@@H]2C[C@@H]2C[C@H]1c1ncc(-c2ccc(-c3ccc(-c4cnc([C@@H]5C[C@H]6C[C@H]6N5C(=O)[C@@H](NC(C)=O)C(C)C)[nH]4)cc3)cc2)[nH]1)C(C)C [Example M140, N((1S)-1-(((1R,3S,SR)-3-(4-(4'-(2-((1R,3S,SR)-2-((2S)-2-acetamido-3-methylbutanoyl)-2-azabicyclo[3.1.0]hex-3-yl)-1H-imidazol-4-yl)-4-biphenylyl)-1H imidazol-2-yl)-2-azabicyclo[3.1.0]hex-2-yl)carbonyl)-2-methylpropyl)acetamide] | 0.001 to 0.999
COC(=O)N[C@H](C(=O)N1CCC[C@H]1c1nc(-c2ccc(-c3ccc(-c4nc([C@@H]5CCCN5C(=O)[C@@H](NC(=O)OC)C(C)C)[nH]c4C)cc3)cc2)c[nH]1)C(C)C [Example E5e, methyl ((1S)-1-(((2S)-2-(4-(4'-(2-((2S)-1-((2S)-2-((methoxycarbonyl)amino)-3-methylbutanoyl)-2-pyrrolidinyl)-1H-imidazol-4-yl)-4-biphenylyl)-5-methyl-1H-imidazol-2-yl)-1-pyrrolidinyl)carbonyl)-2-methylpropyl)carba mate] | 0.001 to 0.999
CC(C)[C@H](NC(=O)C1CC1)C(=O)N1[C@@H]2C[C@@H]2C[C@H]1c1ncc(-c2ccc(-c3ccc(-c4cnc([C@@H]5C[C@H]6C[C@H]6N5C(=O)[C@@H](NC(=O)C5CC5)C(C)C)[nH]4)cc3)cc2)[nH]1 [Example M141, N((1S)-1-(((1R,3S,SR)-3-(4-(4'-(2-((1R,3S,SR)-2-((2S)-2-((cyclopropylcarbonyl)amino)-3-methylbutanoyl)-2-azabicyclo[3.1.0]hex-3-yl)-1H imidazol-4-y/)-4-biphenyly/)-1H-imidazol-2-yl)-2-azabicyclo[3.1. 0]hex-2-yl)carbonyl)-2-methylpropyl)cyclopropanecarbamate] | 1 to 99
CC(C)[C@@H](O)C(=O)N1[C@@H](C)CC[C@H]1c1nc(-c2ccc(-c3ccc(-c4c[nH]c([C@@H]5CC[C@H](C)N5C(=O)[C@H](O)C(C)C)n4)cc3)cc2)c[nH]1 [Example M160, (2R,2'R)-1,1'-(4,4'-biphenyldiylbis(1H-imidazole-4,2-diyl((2S,5S)-5-methyl-2,1-pyrrolidinediyl)))bis(3-methyl-1-oxo-2-butanol)] | 1 to 99
COC(=O)N[C@H](C(=O)N1CCC[C@H]1c1nc(-c2ccc(-c3ccc(-c4[nH]c([C@@H]5CCCN5C(=O)[C@@H](NC(=O)OC)C(C)C)nc4C)cc3)cc2)c(C)[nH]1)C(C)C [Example E5l, methyl ((1S)-1-(((2S)-2-(4-(4'-(2-((2S)-1-((2S)-2-((methoxycarbonyl)amino)-3-methylbutanoyl)-2-pyrrolidinyl)-4-methyl-1H-imidazol-5-yl)-4-biphenylyl)-5-methyl-1H-imidazol-2-yl)-1-pyrrolidinyl)carbonyl)-2-methylpropyl)carba mate] | 0.001 to 0.999
Cc1nc([C@@H]2CCCN2C(=O)[C@@H](c2ccccc2)N2CCCCC2)[nH]c1-c1ccc(-c2ccc(-c3[nH]c([C@@H]4CCCN4C(=O)[C@@H](c4ccccc4)N4CCCCC4)nc3C)cc2)cc1 [Example E5i, 1,1'-(4,4'-biphenyldiylbis((4-methyl-1H-imidazole-5,2-diyl)(2S)-2,1-pyrrolidinediyl((1R )-2-oxo-1-phenyl-2,1-ethanediyl)))dipiper idine] | 0.001 to 0.999
COC(=O)N[C@H](C(=O)N1[C@@H]2C[C@@H]2C[C@H]1c1nc(-c2ccc(-c3ccc(-c4c[nH]c([C@@H]5CC6C[C@H]6N5C(C)=O)n4)cc3)cc2)c[nH]1)C(C)C (mixture of isomers) [Example M138, methyl ((1S)-1-(((1R,3S,5R)-3-(4-(4'-(2-((1R,3S,SR)-2-acetyl-2-azabicyclo[3.1.0]hex-3yl)-1Himidazol-4yl)-4-biphenylyl)-1Himidazol-2-yl)-2-azabicyclo[3.1.0]hex-2-yl)carbonyl)-2-methylpropyl)carbamate] | 0.001 to 0.999
CC(C)[C@H](Nc1ncccn1)C(=O)N1[C@@H]2C[C@@H]2C[C@H]1c1ncc(-c2ccc(-c3ccc(-c4cnc([C@@H]5C[C@H]6C[C@H]6N5C(=O)[C@@H](Nc5ncccn5)C(C)C)[nH]4)cc3)cc2)[nH]1 [Example M144, N,N'-(4,4'-biphenyldiylbis(1H-imidazole-4,2-diyl(1R,3S,5R)-2-azabicyclo[3.1.0]hexane-3,2-diyl((2S)-3-methyl-1-oxo-1, -butanediyl)))di(2-pyrimidinamine)] | 0.001 to 0.999
Cc1nc([C@@H]2CCCN2C(=O)[C@@H](c2ccccc2)N2CCCCC2)[nH]c1-c1ccc(-c2ccc(-c3c[nH]c([C@@H]4CCCN4C(=O)[C@@H](c4ccccc4)N4CCCCC4)n3)cc2)cc1 [Example E5b, 1-((1R)-2-((2S)-2-(4-(4'-(4-methyl-2-((2S)-1-((2R)-2-phenyl-2-(1-piperidinyl)acetyl)-2-pyrrolidinyl)-1H-imidazol-5-yl)-4-biphenylyl)-1H-imidazol-2-yl)-1-pyrrolidinyl)-2-oxo-1-phenylethyl)piperidine] | 0.001 to 0.999
